Reference: patent EP3083561B1, “HETEROARYL LINKED QUINOLINYL MODULATORS OF RORYT” (Janssen Pharmaceutica NV, priority 2013, dated 2015)
pIC50, pKd: −log10 of the molar value. Where a name gives a salt, the structure may show the parent alone.

Experiments:
[1] = test system: IL-17 production by CD4 T cells; assay: Human Th17 assay (IL-17 production by CD4 T cells); type: cell-based; details: CD4+ T cells from healthy donors, Th17 differentiation, 3 days
Text: The human Th17 assay tests the effect of RORγt modulatory compounds on IL-17 production by CD4 T cells under conditions which favor Th17 differentiation. Total CD4^+ T cells were isolated from the peripheral blood mononuclear cells (PBMC) of healthy donors using a CD4^+ T cell isolation kit II, following the manufacturer's instructions (Miltenyi Biotec). Cells were resuspended in a medium of RPMI-1640 supplemented with 10% fetal bovine serum, penicillin, streptomycin, […], and β-mercaptoethanol and were added to 96-well plates at 1.5x10^5 per 100 µL per well. 50 µL of compound at titrated concentrations in DMSO were added into each well at final DMSO concentration at 0.2%. Cells were incubated for 1 hour, then 50 µL of Th17 cell differentiation medium was added to each well. The final concentrations of antibodies and cytokines (R&D Systems) in differentiation medium were: 3x10^6/mL anti-CD3/CD28 beads (prepared using human T cell activation/expansion kit, Miltenyi Biotec), 10 µg/mL anti-IL4, 10 µg/mL anti-IFNγ, 10 ng/mL IL1β, 10 ng/mL IL23, 50 ng/mL IL6, 3 ng/mL TGFβ and 20 U/mL IL2. Cells were cultured at 37 °C and 5% CO2 for 3 days. Supernatants were collected and the accumulated IL-17 in culture was measured by using MULTI-SPOT® Cytokine Plate following manufacture's instruction (Meso Scale Discovery). The plate was read using Sector Imager 6000, and IL-17 concentration was extrapolated from the standard curve. The IC50s were determined by GraphPad.

[2] = target: T1, human RORγt ligand binding domain (RORγt LBD) (Homo sapiens, UniProt P51449); assay: RORγt ThermoFluor assay (thermal shift binding affinity); details: 0.065 mg/mL RORγt, pH 7.0; estimated from thermal shift
T1 construct: made in house; host or cells: E. coli (pHIS1, modified pET vector)
T1 sequence (P51449 258-518): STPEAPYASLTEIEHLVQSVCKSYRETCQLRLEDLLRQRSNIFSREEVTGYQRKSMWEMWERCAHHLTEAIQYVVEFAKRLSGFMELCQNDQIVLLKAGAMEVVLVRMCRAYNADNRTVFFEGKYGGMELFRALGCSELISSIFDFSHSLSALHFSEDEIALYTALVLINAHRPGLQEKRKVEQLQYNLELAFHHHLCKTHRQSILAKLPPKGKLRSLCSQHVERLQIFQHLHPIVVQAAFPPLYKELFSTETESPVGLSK
Experimental: This approach is applicable to a wide variety of systems, and rigorous in theoretical interpretation through quantitation of equilibrium binding constants (KD).
The shift in the melting point described as a ΔTm is proportional to the concentration and affinity of the ligand. The compound potency may be compared as a rank order of either ΔTm values at a single compound concentration or in terms of KD values, estimated from concentration response curves.
ThermoFluor® experiments were carried out using instruments owned by Janssen Research and Discovery, L.L.C. through its acquisition of 3-Dimensional Pharmaceuticals, Inc. 1,8-ANS (Invitrogen) was used as a fluorescent dye. Protein and compound solutions are dispensed into black 384-well polypropylene PCR microplates (Abgene) and overlayed with silicone oil (1 µL, Fluka, type DC 200) to prevent evaporation.
Bar-coded assay plates are robotically loaded onto a thermostatically controlled PCR-type thermal block and then heated at a typical ramp-rate of 1 °C/min for all experiments. Fluorescence was measured by continuous illumination with UV light (Hamamatsu LC6) supplied via fiber optic and filtered through a band-pass filter (380-400 nm; >6 OD cutoff). Fluorescence emission of the entire 384-well plate was detected by measuring light intensity using a CCD camera (Sensys, Roper Scientific) filtered to detect 500 ± 25 nm, resulting in simultaneous and independent readings of all 384 wells. Images were collected at each temperature, and the sum of the pixel intensity in a given area of the assay plate was recorded versus temperature. Reference wells contained RORγt without compounds, and the assay conditions were as follows: • 0.065 mg/mL RORyt • 60 µM 1,8-ANS • 100 mM Hepes, pH 7.0 • 10 mM NaCl • 2.5 mM GSH • 0.002% Tween-20
Project compounds were arranged in a pre-dosed mother plate (Greiner Bio-one) wherein compounds are serially diluted in 100% DMSO by 1:2 from a high concentration of 10 mM over 12 columns within a series (column 12 is a reference well containing DMSO, no compound). The compounds were robotically dispensed directly into assay plates (1x = 46 nL) using a Hummingbird capillary liquid handling instrument (Digilab). Following compound dispense, protein and dye in buffer was added to achieve the final assay volume of 3 µL, followed by 1 µL of silicone oil.

human RORγt LBD = target: T2, human RORγt LBD (Homo sapiens, UniProt P51449); assay: RORγt reporter assay (GAL4-RORγt LBD luciferase in HEK293T cells); type: cell-based; details: for pIC50: 24 hours compound treatment; for inhibition at 6 µM: HEK-293T
T2 construct: expressed in transfected cells
T2 sequence (P51449 258-518): T1 sequence (P51449 258-518)
Text: A reporter assay was used to test functional activity of RORγt modulatory compounds on transcriptional activation driven by the RORγt LBD. Cells used in the assay were co-transfected with two constructs. The first construct, pBIND-RORγt LBD, contained the wild type human RORγt LBD fused to the DNA binding domain of the GAL4 protein. The second construct, pGL4.31 (Promega Cat no. C935A), contained multiple GAL4 responsive DNA elements upstream of firefly luciferase. […] The mutant construct was called pBIND-RORγt-AF2.
The pBIND vector contains the GAL4 DNA Binding Domain (GAL4 DBD) and the renilla luciferase gene under control of the SV40 promoter. Renilla luciferase expression serves as a control for transfection efficiency and cell viability.
The reporter assay was performed by transiently transfecting HEK293T cells with 5 µg of pBIND-RORγt LBD or pBIND-RORγt LBD-AF2 and 5 µg pGL4.31 (Promega Cat no. C935A) using Fugene 6 (Invitrogen Cat no. E2691) at a 1:6 ratio of DNA: Fugene 6 in a T-75 flask in which cells were at least 80% confluent. Twenty four hours after bulk transfection, cells were plated into 96-well plates at 50,000 cells/well in phenol-red free DMEM containing 5% Lipid Reduced FCS and Pen/Strep. Six hours after plating, cells were treated with compounds for 24 hours. Media was removed and cells were lysed with 50 µL 1x Glo Lysis Buffer (Promega). Dual Glo Luciferase Reagent (50 µL/well) was then added and firefly luciferase luminescence was read on an Envision after a ten minute incubation. Finally, Stop and Glo reagent (50 µL/well) was added and renilla luciferase luminescence was read on an Envision after a ten minute incubation. To calculate the effect of compounds on RORγt activity, the ratio of firefly to renilla luciferase was determined and plotted against compound concentration. Agonist compounds increase RORγt-driven luciferase expression, and antagonist or inverse agonist compounds decrease luciferase expression.

SMILES	pKd [2]	pIC50 (human RORγt LBD)	inhibition at 6 µM (human RORγt LBD) [%]	pIC50 ([1]; Homo sapiens, CD4+ T, 72 h)	pIC50 ([1]; Homo sapiens, 72 h)	pIC50 [1]
Cn1cncc1C(O)(c1ccc(C(F)(F)F)nc1)c1ccc2nc(N3CCCC3)c(Oc3ccc(C#N)cc3)c(Cl)c2c1 (racemic) [Example 2a, 4-((4-Chloro-6-(hydroxy(1-methyl-1H-imidazol-5-yl)(6-(trifluoromethyl)pyridin-3-yl)methyl)-2-(pyrrolidin-1-yl)quinolin-3-yl)oxy)benzonitrile]				7.06		
Cn1cncc1C(O)(c1ccc(Cl)cc1)c1ccc2nc(N3CCC3=O)c(Oc3ccc(C#N)cc3)c(Cl)c2c1 (stereo not shown) [Example 1, 4-((4-chloro-6-((4-chlorophenyl)(hydroxy)(1-methyl-1H-imidazol-5-yl)methyl)-2-(2-oxoazetidin-1-yl)quinofin-3-yl)oxy)benzonitrile · TFA]	7.24	6.74	101		6.52	
Cn1cncc1C(O)(c1ccc(C(F)(F)F)nc1)c1ccc2nc(N3CCCC3)c(Oc3ccc(C#N)cc3)c(Cl)c2c1 (stereo not shown) [Example 2b]						6.49
Cn1cncc1C(O)(c1ccc(C(F)(F)F)nc1)c1ccc2nc(N3CCCC3)c(Oc3ccc(C#N)cc3)c(Cl)c2c1 (stereo not shown) [Example 2c]						7.00
CC(C)OC1CN(c2nc3ccc(C(O)(c4ccc(C(F)(F)F)nc4)c4cncn4C)cc3c(Cl)c2Oc2ccc(Cl)cc2)C1 (stereo not shown) [Example 6, (4-Chloro-3-(4-chlorophenoxy)-2-(3-isopropoxyazetidin-1-yl)quinolin-6-yl)(1-methyl-1H-imidazol-5-yl)(6-(trifluoromethyl)pyridin-3-yl)methanol]	4.96	< 5.22	41			
CC(C)(C)OC(=O)N(c1ccccc1)c1c(Cl)nc2ccc(C(O)(c3cccnc3)c3cccc(Cl)c3)cc2c1Cl (stereo not shown) [Example 7, tert-Butyl (2,4-dichloro-6-((3-chlorophenyl)(hydroxy)(pyridin-3-yl)methyl)quinolin-3-yl)(phenyl)carbamate]			72			

Second part, led by results:

pKd [2]	pIC50 (human RORγt LBD)	inhibition at 6 µM (human RORγt LBD) [%]	SMILES	pIC50 ([1]; Homo sapiens, CD4+ T, 72 h)	pIC50 ([1]; Homo sapiens, 72 h)	pIC50 [1]
< 4.20	6.57		CCN(CC)c1nc2ccc(C(O)(c3ccccn3)c3cncn3C)cc2c(C#N)c1Oc1ccccc1 (single isomer, unassigned) [Example 5c]		6.82	
6.85	6.70	101	CCN(CC)c1nc2ccc(C(O)(c3ccccn3)c3cncn3C)cc2c(Cl)c1Oc1ccccc1 (stereo not shown) [Example 3b]		6.74	
6.34	5.96		CCN(CC)c1nc2ccc(C(O)(c3ccccn3)c3cncn3C)cc2c(Cl)c1Oc1ccccc1 (stereo not shown) [Example 3c]			
	6.06	102	CCN(CC)c1nc2ccc(C(O)(c3ccccn3)c3cncn3C)cc2c(C#N)c1Oc1ccccc1 (stereo not shown) [Example 5b]			
